Measurements as given in patent publication US12594289B2, “Potentiation of antibiotic effect” (The University of North Carolina at Chapel Hill, priority 2017, dated 2026).
Values after ≈ are worked out from the molar mass of the structure shown. Read-outs that look alike come from different tables or passages of the source.

Key:
Assay type in all cases: cell-based, Staphylococcus aureus
[1] = test system: S. aureus HG003 menD mutant (SCV)
[2] = test system: S. aureus HG003; test: Killing of S. aureus by tobramycin with or without rhamnolipids (Example 4); settings: tobramycin 58 μg/ml alone
[3] = test system: S. aureus HG003; test: microbe, parasite or virus in culture; settings: for MIC: Staphylococcus aureus
[4] = test system: S. aureus HG003, arsenate treated; test: Killing of low energy (arsenate treated) S. aureus (Example 6); settings: tobramycin 58 μg/ml, arsenate 1 mM
[5] = test system: S. aureus HG003; test: Killing in the presence of protein synthesis inhibitor linezolid (Example 8); settings: tobramycin 58 μg/ml, linezolid 50 μg/ml
[6] = test system: S. aureus HG003; test: Propidium iodide uptake, membrane permeability (Example 11)
[7] = test system: S. aureus HG003; test: Killing by permeabilizing molecules in combination with tobramycin over 24 hours (Example 11)

Compound: NC[C@H]1O[C@H](O[C@H]2[C@H](O)[C@@H](O[C@H]3O[C@H](CO)[C@@H](O)[C@H](N)[C@H]3O)[C@H](N)C[C@@H]2N)[C@H](N)C[C@@H]1O [tobramycin]
- susceptibility of the menD mutant [1]: resistant
- survivors after 12 hours [2]: 10^4
- MIC ([3]; PA14): 0.39 µg/mL (≈ 0.834 µM)
- MIC ([3]; PA14 / PAO1): 3.12 to 6.25 µg/mL (≈ 6.68 to 13.4 µM)
- killing of S. aureus under arsenate-induced low ATP [4]: fails to kill
- killing in the presence of linezolid [5]: fails to kill

Compound: CCCCCCCCCCCC(=O)OCC(O)CO (stereo not drawn) [glycerol monolaureate]
- lethality to S. aureus alone [6]: not lethal
- permeabilization of S. aureus (propidium iodide uptake) [6]: permeabilize
- potentiation of tobramycin killing over 24 hours [7]: significant potentiation

Compound: CCCCCC/C=C\CCCCCCCC(=O)O [palmitoleic acid]
- lethality to S. aureus alone [6]: not lethal
- permeabilization of S. aureus (propidium iodide uptake) [6]: permeabilize
- potentiation of tobramycin killing over 24 hours ([7]; in combination with tobramycin): significant potentiation

Compound: CN[C@H](CC(C)C)C(=O)N[C@H]1C(=O)N[C@@H](CC(N)=O)C(=O)N[C@H]2C(=O)N[C@H]3C(=O)N[C@H](C(=O)N[C@H](C(=O)O)c4cc(O)cc(O)c4-c4cc3ccc4O)[C@H](O)c3ccc(c(Cl)c3)Oc3cc2cc(c3O[C@@H]2O[C@H](CO)[C@@H](O)[C@H](O)[C@H]2O[C@H]2C[C@](C)(N)[C@H](O)[C@H](C)O2)Oc2ccc(cc2Cl)[C@H]1O [vancomycin]
- effect of the presence of P. aeruginosa supernatant on MIC [3]: not affected
- MIC ([3]; HG003): 1.25 µg/mL (≈ 0.863 µM)
- MIC ([3]; PA14 / PAO1): 1.25 µg/mL (≈ 0.863 µM)

Compound: Cc1onc(-c2ccccc2)c1C(=O)N[C@@H]1C(=O)N2[C@@H]1SC(C)(C)[C@@H]2C(=O)O [oxacillin]
- effect of the presence of P. aeruginosa supernatant on MIC [3]: not affected
- MIC ([3]; HG003): 0.39 µg/mL (≈ 0.971 µM)
- MIC ([3]; PA14 / PAO1): 0.39 µg/mL (≈ 0.971 µM)
